In patent publication US6919441B2, “Polyamide-oligonucleotide derivatives, their preparation and use” (Aventis Pharma Deutschland GmbH, priority 1995, dated 2005):

Columns and labels:
N-ras RNA = assay: RNase H mediated cleavage of N-ras RNA, cell-free system; format: biochemical; conditions: RNase H from E. coli
Protocol: The ability to cleave N-ras RNA specifically by PNA-DNA chimera directed against N-ras which can induce RNase H was tested in a cell-free system. First, radioactively labelled N-ras RNA was prepared by in vitro transcription.
The plasmid pMS5-NRAS, which is a derivative of pBluescript II KS (±/−) containing the mutant N-ras sequence (codon 13 GGT→CGT) cloned into XbaI/EcoRI sites, was linearized with EcoR1. After phenol extraction and ethanol precipitation the linear DNA was used as template for in vitro transcription. For transcription, the DNA (5 μg) was incubated in a 100 μl mixture containing 10 mM DTT, 40 mM Tris-HCl pH 7.5, 50 mM NaCl, 8 mM MgCl2, 2 mM spermidine, 500 μM of each rNTP, 80 u RNase-inhibitor, 40 μCi [α-^32P]-(ATP) and 250 u T7 RNA polymerase. After incubation for 1 h at 37° C., the DNA was digested by addition of 25 u DNaseI and further incubation for 30 min at 37° C. After extraction with phenol and chloroform, the aqueous phase was transferred into a Centricon tube and centrifuged at 3410 rpm for 30 min. The RNA was analyzed by PAGE (6% PAA, 8 M urea). For the RNase H cleavage the radioactively labelled N-ras RNA (approximately 0.05 nmol; aqueous solution from above) was hybridized with the PNA-DNA chimera speific for N-ras mRNA (6.5 nmol) by heating to 80° C. and cooling to room temperature. […] The cleavage reactions were analyzed by PAGE (6% PAA, 8 M urea) gel.

TNF-α = assay: Inhibition of TNF-α expression in THP-1 cells (ELISA); format: cell-based, human; conditions: 0.1-0,5 μM, Cellfectin, PMA/IFNγ stimulation
Protocol: Cell Culture. The human monocytic cell line, THP-1 was grown in RPMI 1640 supplemented with L-glutamine (GIBCO BRL, Life Technologies, Inc.), 10% heat inactivated fetal bovine serum (GIBCO BRL) and penicillin (100 U/ml)/streptomycin (100 μg/ml). The NIH3T3 permanently producing human TNFα was maintained in 10% DMEM.
Enzyme Linked Immunosorbent Assays (ELISA) for TNFα. The TNFα level was quantified using ELISA kit (Cat. #DTA50) obtained from R&D Systems (Minneapolis, Minn.).
Assay Methods. THP-1 cells (3×10^6) were seeded in 48-well plates in 0.2 ml of Opti-MEM (GIBCO) medium. In a 96-well plate, varying concentrations of PNA-DNA chimera (20 μl) were each added to 20 μl of Cellfectin in Opti-MEM (2.4 μl of 1 mg/ml Cellfectin added to 17.6 μl Opti-MEM) and incubated for 15 min at room temperature. The mixture was then added to the cells dropwise. The final concentration of the Cellfectin was 10 μg/ml in 0.24 ml of Opti-MEM. After 4 hours at 37° C., 0.48 ml of 15% RPMI medium was added to each well (This dilution step was added to inactivate the Cellfectin). The final concentration of cells was ˜1×10^6 calls/ml in 10% RPMI. The cells were then stimulated with a combination of 100 ng/ml of PMA and 300 U/ml of IFNγ. […] The supernatants were analyzed for TNFα.

Row | Substance | induction of RNase H mediated cleavage of N-ras RNA (N-ras RNA) | inhibition of TNF-α expression relative to untreated controls (TNF-α)
1 | 5′-CCAACA-(Oeg(c))-cgacctgct-hex [Example 57] | able to induce RNase H mediated cleavage | 
2 | 5′-USCSASGGSUG-(Oeg(t))-cctttgcag-hex [Example 56] |  | 25-35%
